Experimental data taken from patent US20050112573A1, “Method of detecting toxic substance” (priority 2001, published 2005).

System: yeast genes (level of expressed mRNA)
Assay: DNA chip analysis of expressed mRNA of yeast genes after 2 h culture with a toxic chemical substance
Type: cell-based, Saccharomyces cerevisiae S288C
Experimental: Yeast (Saccharomyces cerevtisiae S288C (α SUC2mal mel gap2 CUP1)) were cultured at 25° C. on YPD medium (yeast extract 1%, polypepton 2%, glucose 2%). One of toxic chemical substances was added to the cell at logarithmic growth phase, and the cell was further cultured for two hours. Cell was cultured without any chemical substance in the same condition, and was used as control. Concentrations of the chemical substances were defined to inhibit the growth of the yeast but not lead to death.
After the completion of cultivation, the culture was centrifuged to collect the cells. To the cells, sodium acetate buffer (50 mM sodium acetate, 10 mM EDTA, 1% SDS) was added, and the mixture was shaken at 65° C. for five minutes, followed by returning to room temperature, and obtaining the supernatant, which procedure was repeated two times. To the supernatant, ½ amount of a solution of phenol/chloroform was added, and the mixture was centrifuged to give a supernatant, which was added with an equal amount of chloroform, and the mixture was centrifuged to give a supernatant. To the supernatant, an equal amount of isopropanol containing 0.3 M sodium acetate was added, and the mixture was allowed to stand at room temperature for 30 minutes, after which the mixture was centrifuged to give a sediment of the whole RNAs. Seventy % ethanol was added to the sediment, and the mixture was again centrifuged to give a sediment, which was then dried and dissolved in water. mRNA was isolated from the whole RNAs as followings. In view of the fact that a poly A chain is attached to the 3′ terminus of mRNA, a polynucleotide having a poly T structure which was immobilized on the surface of latex beads was used to trap the mRNA, and then the mRNA was washed and eluted with spine column (Oligotex-dT30<Super>mRNA Purification Kit, Takara). Reverse transcription of the mRNA was conducted with a reverse transcriptase (Super Script II Reverse Transcriptase; catalogue No. 18064-014, GibcoBRL) using fluorescence-labeled nucleotides to give cDNAs that were introduced with Cy3-dUTP or Cy5-dUTP during the reverse transcription.
The labeled cDNAs were dissolved in TE buffer (10 mM Tris-HCl/1 mM EDTA, pH8.0), and the solution was dropped on the DNA chip containing the whole genes of yeast (DNA Chip Research Inc. Japan) so that the cDNAs were hybridized on the DNA chip at 65° C. for over 12 hours. The fluoresces intensity of the DNA chip was read with a scanner, and the ratio relative to the fluorescence intensity resulting from the absence of chemical substance was estimated as the following, which is shown in Tables 1 to 9: [formula]
In the Tables, “Intensity” indicated in the rightmost column is a value of the level of expressed mRNA of each gene in control cells as divided by the average level of the expressions of the whole genes.

In the case of `CN(C)C(=S)SSC(=S)N(C)C` [(10), Tetramethylthiuram disulfide], the “The level of expressed mRNA in the presence of chemical substance/The level of expressed mRNA in the absence of chemical substance” value (yeast gene YKL013C) is reported as 1.4, the “The level of expressed mRNA in the presence of chemical substance/The level of expressed mRNA in the absence of chemical substance” value (yeast gene YKL039W) is reported as 3.3 and the “The level of expressed mRNA in the presence of chemical substance/The level of expressed mRNA in the absence of chemical substance” value (yeast gene YKL041W) is reported as 1.5. For the same molecule, the “The level of expressed mRNA in the presence of chemical substance/The level of expressed mRNA in the absence of chemical substance” value (yeast gene YKL096W) was 0.5, the “The level of expressed mRNA in the presence of chemical substance/The level of expressed mRNA in the absence of chemical substance” value (yeast gene YKL165C) was 0.4 and the “The level of expressed mRNA in the presence of chemical substance/The level of expressed mRNA in the absence of chemical substance” value (yeast gene YKL193C) was 1.6. The “The level of expressed mRNA in the presence of chemical substance/The level of expressed mRNA in the absence of chemical substance” value (yeast gene YLR120C) was 1.6, the “The level of expressed mRNA in the presence of chemical substance/The level of expressed mRNA in the absence of chemical substance” value (yeast gene YLR136C) was 6.0 and the “The level of expressed mRNA in the presence of chemical substance/The level of expressed mRNA in the absence of chemical substance” value (yeast gene YLR178C) was 4.1. The “The level of expressed mRNA in the presence of chemical substance/The level of expressed mRNA in the absence of chemical substance” value (yeast gene YLR250W) was 2.4, the “The level of expressed mRNA in the presence of chemical substance/The level of expressed mRNA in the absence of chemical substance” value (yeast gene YLR327C) was 8.3 and the “The level of expressed mRNA in the presence of chemical substance/The level of expressed mRNA in the absence of chemical substance” value (yeast gene YLR356W) was 1.6. For the same molecule, the “The level of expressed mRNA in the presence of chemical substance/The level of expressed mRNA in the absence of chemical substance” value (yeast gene YLR362W) was 3.3, the “The level of expressed mRNA in the presence of chemical substance/The level of expressed mRNA in the absence of chemical substance” value (yeast gene YLR391W) was 0.7 and the “The level of expressed mRNA in the presence of chemical substance/The level of expressed mRNA in the absence of chemical substance” value (yeast gene YLR429W) was 1.3. The “The level of expressed mRNA in the presence of chemical substance/The level of expressed mRNA in the absence of chemical substance” value (yeast gene YMR004W) was 3.4, the “The level of expressed mRNA in the presence of chemical substance/The level of expressed mRNA in the absence of chemical substance” value (yeast gene YMR094W) was 0.9 and the “The level of expressed mRNA in the presence of chemical substance/The level of expressed mRNA in the absence of chemical substance” value (yeast gene YMR104C) was 3.2. The “The level of expressed mRNA in the presence of chemical substance/The level of expressed mRNA in the absence of chemical substance” value (yeast gene YMR219W) was 0.9, the “The level of expressed mRNA in the presence of chemical substance/The level of expressed mRNA in the absence of chemical substance” value (yeast gene YMR226C) was 2.2 and the “The level of expressed mRNA in the presence of chemical substance/The level of expressed mRNA in the absence of chemical substance” value (yeast gene YMR275C) was 2.1. The “The level of expressed mRNA in the presence of chemical substance/The level of expressed mRNA in the absence of chemical substance” value (yeast gene YMR276W) was 1.7, the “The level of expressed mRNA in the presence of chemical substance/The level of expressed mRNA in the absence of chemical substance” value (yeast gene YMR314W) was 2.7 and the “The level of expressed mRNA in the presence of chemical substance/The level of expressed mRNA in the absence of chemical substance” value (yeast gene YNL006W) was 4.0. The “The level of expressed mRNA in the presence of chemical substance/The level of expressed mRNA in the absence of chemical substance” value (yeast gene YNL007C) was 1.7, the “The level of expressed mRNA in the presence of chemical substance/The level of expressed mRNA in the absence of chemical substance” value (yeast gene YNL093W) was 2.0 and the “The level of expressed mRNA in the presence of chemical substance/The level of expressed mRNA in the absence of chemical substance” value (yeast gene YNL333W) was 2.1. For the same molecule, the “The level of expressed mRNA in the presence of chemical substance/The level of expressed mRNA in the absence of chemical substance” value (yeast gene YNR010W) was 0.9, the “The level of expressed mRNA in the presence of chemical substance/The level of expressed mRNA in the absence of chemical substance” value (yeast gene YNR069C) was 5.8 and the “The level of expressed mRNA in the presence of chemical substance/The level of expressed mRNA in the absence of chemical substance” value (yeast gene YOL013C) was 1.0. The “The level of expressed mRNA in the presence of chemical substance/The level of expressed mRNA in the absence of chemical substance” value (yeast gene YOL164W) was 3.6, the “The level of expressed mRNA in the presence of chemical substance/The level of expressed mRNA in the absence of chemical substance” value (yeast gene YOR036W) was 1.9 and the “The level of expressed mRNA in the presence of chemical substance/The level of expressed mRNA in the absence of chemical substance” value (yeast gene YOR117W) was 1.8. For the same molecule, the “The level of expressed mRNA in the presence of chemical substance/The level of expressed mRNA in the absence of chemical substance” value (yeast gene YOR124C) was 1.9, the “The level of expressed mRNA in the presence of chemical substance/The level of expressed mRNA in the absence of chemical substance” value (yeast gene YOR132W) was 1.6 and the “The level of expressed mRNA in the presence of chemical substance/The level of expressed mRNA in the absence of chemical substance” value (yeast gene YOR157C) was 2.6. The “The level of expressed mRNA in the presence of chemical substance/The level of expressed mRNA in the absence of chemical substance” value (yeast gene YOR181W) was 0.5, the “The level of expressed mRNA in the presence of chemical substance/The level of expressed mRNA in the absence of chemical substance” value (yeast gene YOR185C) was 2.9 and the “The level of expressed mRNA in the presence of chemical substance/The level of expressed mRNA in the absence of chemical substance” value (yeast gene YOR198C) was 1.4. For the same molecule, the “The level of expressed mRNA in the presence of chemical substance/The level of expressed mRNA in the absence of chemical substance” value (yeast gene YOR259C) was 1.5, the “The level of expressed mRNA in the presence of chemical substance/The level of expressed mRNA in the absence of chemical substance” value (yeast gene YOR261C) was 2.5 and the “The level of expressed mRNA in the presence of chemical substance/The level of expressed mRNA in the absence of chemical substance” value (yeast gene YOR288C) was 1.0. The “The level of expressed mRNA in the presence of chemical substance/The level of expressed mRNA in the absence of chemical substance” value (yeast gene YOR355W) was 0.8, the “The level of expressed mRNA in the presence of chemical substance/The level of expressed mRNA in the absence of chemical substance” value (yeast gene YOR383C) was 4.5 and the “The level of expressed mRNA in the presence of chemical substance/The level of expressed mRNA in the absence of chemical substance” value (yeast gene YPL089C) was 2.5. For the same molecule, the “The level of expressed mRNA in the presence of chemical substance/The level of expressed mRNA in the absence of chemical substance” value (yeast gene YPL109C) was 1.5, the “The level of expressed mRNA in the presence of chemical substance/The level of expressed mRNA in the absence of chemical substance” value (yeast gene YPL149W) was 3.7 and the “The level of expressed mRNA in the presence of chemical substance/The level of expressed mRNA in the absence of chemical substance” value (yeast gene YPL154C) was 1.7. The “The level of expressed mRNA in the presence of chemical substance/The level of expressed mRNA in the absence of chemical substance” value (yeast gene YPR103W) was 2.0 and the “The level of expressed mRNA in the presence of chemical substance/The level of expressed mRNA in the absence of chemical substance” value (yeast gene YPR108W) was 2.8.
